Data: PubChem BioAssay (NCI)
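How tested: cells in 96-well plates exposed to compound for 48 hours at five concentrations. TGI is the concentration that stops growth completely.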

Columns and labels:
Assay in all cases: NCI tumour cell line growth inhibition, 48 h
A549 NSCLC = system: A549 NSCLC
ACHN renal = system: ACHN renal
COLO 205 colon = system: COLO 205 colon
HCT-116 colon = system: HCT-116 colon
HCT-15 colon = system: HCT-15 colon
HT29 colon = system: HT29 colon
M14 melanoma = system: M14 melanoma
MOLT-4 leukemia = system: MOLT-4 leukemia
NCI-H226 lung = system: NCI-H226 lung
NCI-H23 lung = system: NCI-H23 lung
NCI-H460 lung = system: NCI-H460 lung
OVCAR-3 ovarian = system: OVCAR-3 ovarian
OVCAR-4 ovarian = system: OVCAR-4 ovarian
OVCAR-8 ovarian = system: OVCAR-8 ovarian
SF-295 CNS = system: SF-295 CNS
SK-MEL-5 melanoma = system: SK-MEL-5 melanoma
UACC-62 melanoma = system: UACC-62 melanoma
MDA-MB-435 = system: MDA-MB-435
DU-145 prostate = system: DU-145 prostate

C/C(=N/NC(N)=S)C(CN(C)C)C(C1=C(O)c2ccccc2OC1)c1ccccc1 (stereo not given)
TGI (A549 NSCLC): > 100 µM
TGI (ACHN renal): > 100 µM
TGI (COLO 205 colon): > 100 µM
TGI (HCT-116 colon): > 100 µM
TGI (HCT-15 colon): > 100 µM
TGI (HT29 colon): > 100 µM
TGI (M14 melanoma): > 100 µM
TGI (MOLT-4 leukemia): > 100 µM
TGI (NCI-H226 lung): > 100 µM
TGI (NCI-H23 lung): > 100 µM
TGI (NCI-H460 lung): > 100 µM
TGI (OVCAR-3 ovarian): > 100 µM
TGI (OVCAR-4 ovarian): > 100 µM
TGI (OVCAR-8 ovarian): > 100 µM
TGI (SF-295 CNS): > 100 µM
TGI (SK-MEL-5 melanoma): > 100 µM
TGI (UACC-62 melanoma): > 100 µM

CN1N=C2c3ccccc3CC[C@H]2C1c1cccc(O)c1 (stereo not given in full)
TGI (A549 NSCLC): > 100 µM
TGI (ACHN renal): > 100 µM
TGI (COLO 205 colon): > 100 µM
TGI (HCT-116 colon): > 100 µM
TGI (HCT-15 colon): > 100 µM
TGI (HT29 colon): > 100 µM
TGI (M14 melanoma): > 100 µM
TGI (MOLT-4 leukemia): > 100 µM
TGI (NCI-H226 lung): > 100 µM
TGI (NCI-H23 lung): > 100 µM
TGI (NCI-H460 lung): > 100 µM
TGI (OVCAR-3 ovarian): > 100 µM
TGI (OVCAR-4 ovarian): > 100 µM
TGI (OVCAR-8 ovarian): > 100 µM
TGI (SF-295 CNS): > 100 µM
TGI (UACC-62 melanoma): > 100 µM

C#Cc1cc(CN(CC(=O)OC(C)(C)C)CC(=O)OC(C)(C)C)nc(CN(CC(=O)OC(C)(C)C)CC(=O)OC(C)(C)C)c1
TGI (A549 NSCLC): 89.4 µM
TGI (ACHN renal): 77 µM
TGI (COLO 205 colon): 24.9 µM
TGI (HCT-15 colon): > 100 µM
TGI (HT29 colon): > 100 µM
TGI (M14 melanoma): 28.6 µM
TGI (MOLT-4 leukemia): 6.33 µM
TGI (NCI-H226 lung): 7.34 µM
TGI (NCI-H23 lung): 26.3 µM
TGI (NCI-H460 lung): > 100 µM
TGI (OVCAR-3 ovarian): > 100 µM
TGI (OVCAR-4 ovarian): 37.9 µM
TGI (OVCAR-8 ovarian): 31.6 µM
TGI (SF-295 CNS): > 100 µM
TGI (SK-MEL-5 melanoma): 11.3 µM
TGI (UACC-62 melanoma): 36.5 µM

Cc1cc(=O)[nH]c(NNC(C#N)c2ccco2)n1 (stereo not given)
TGI (A549 NSCLC): > 100 µM
TGI (ACHN renal): > 100 µM
TGI (COLO 205 colon): > 100 µM
TGI (HCT-116 colon): > 100 µM
TGI (HCT-15 colon): > 100 µM
TGI (HT29 colon): > 100 µM
TGI (M14 melanoma): > 100 µM
TGI (MOLT-4 leukemia): > 100 µM
TGI (NCI-H226 lung): > 100 µM
TGI (NCI-H23 lung): > 100 µM
TGI (NCI-H460 lung): > 100 µM
TGI (OVCAR-3 ovarian): > 100 µM
TGI (OVCAR-4 ovarian): > 100 µM
TGI (OVCAR-8 ovarian): > 100 µM
TGI (SF-295 CNS): > 100 µM
TGI (SK-MEL-5 melanoma): > 100 µM
TGI (UACC-62 melanoma): > 100 µM

CC(C)(C)C(=O)/C=C/c1cccc(Oc2ccccc2)c1
TGI (A549 NSCLC): 48.8 µM
TGI (ACHN renal): 28.5 µM
TGI (HCT-116 colon): 31 µM
TGI (HCT-15 colon): 40.4 µM
TGI (HT29 colon): 22.1 µM
TGI (M14 melanoma): 34.7 µM
TGI (MOLT-4 leukemia): 57.1 µM
TGI (NCI-H226 lung): 33.4 µM
TGI (NCI-H460 lung): 32.5 µM
TGI (OVCAR-8 ovarian): 27.8 µM
TGI (SF-295 CNS): 25.8 µM
TGI (SK-MEL-5 melanoma): 30.4 µM

COc1ccc(C2S/C(=C\c3ccccc3)C(=O)N2NC(=O)Cc2ccccc2)cc1 (stereo not given)
TGI (A549 NSCLC): > 100 µM
TGI (ACHN renal): > 100 µM
TGI (COLO 205 colon): > 100 µM
TGI (HCT-116 colon): > 100 µM
TGI (HCT-15 colon): > 100 µM
TGI (HT29 colon): > 100 µM
TGI (M14 melanoma): > 100 µM
TGI (MOLT-4 leukemia): > 100 µM
TGI (NCI-H226 lung): > 100 µM
TGI (NCI-H23 lung): > 100 µM
TGI (NCI-H460 lung): > 100 µM
TGI (OVCAR-4 ovarian): > 100 µM
TGI (OVCAR-8 ovarian): > 100 µM
TGI (SF-295 CNS): > 100 µM
TGI (SK-MEL-5 melanoma): > 100 µM
TGI (UACC-62 melanoma): > 100 µM

O=C(N/N=C(\c1nc2ccc(Cl)cc2[nH]c1=O)C(O)c1ccccc1Cl)c1ccncc1 (stereo not given)
TGI (A549 NSCLC): > 100 µM
TGI (ACHN renal): > 100 µM
TGI (COLO 205 colon): > 100 µM
TGI (HCT-116 colon): > 100 µM
TGI (HCT-15 colon): > 100 µM
TGI (HT29 colon): > 100 µM
TGI (M14 melanoma): > 100 µM
TGI (MOLT-4 leukemia): > 100 µM
TGI (NCI-H226 lung): > 100 µM
TGI (NCI-H23 lung): > 100 µM
TGI (NCI-H460 lung): > 100 µM
TGI (OVCAR-3 ovarian): > 100 µM
TGI (OVCAR-4 ovarian): > 100 µM
TGI (SF-295 CNS): > 100 µM
TGI (SK-MEL-5 melanoma): > 100 µM
TGI (UACC-62 melanoma): > 100 µM

COc1ccc(C(SCC(N)C(=O)O)(c2ccc(OC)cc2)c2ccc(OC)cc2)cc1 (stereo not given)
TGI (A549 NSCLC): > 31.6 µM
TGI (ACHN renal): 18.6 µM
TGI (COLO 205 colon): 17 µM
TGI (HCT-116 colon): 15.6 µM
TGI (HCT-15 colon): 18.1 µM
TGI (HT29 colon): 16.7 µM
TGI (M14 melanoma): 15.1 µM
TGI (MDA-MB-435): 10.8 µM
TGI (MOLT-4 leukemia): 24 µM
TGI (NCI-H226 lung): 18.3 µM
TGI (NCI-H23 lung): 20.6 µM
TGI (NCI-H460 lung): 17.3 µM
TGI (OVCAR-3 ovarian): 17.1 µM
TGI (OVCAR-4 ovarian): 27.7 µM
TGI (OVCAR-8 ovarian): 18 µM
TGI (SF-295 CNS): 17.8 µM
TGI (UACC-62 melanoma): 15.7 µM

O=C(OCc1ccccc1)N1CCCc2c(n(S(=O)(=O)c3ccccc3)c3ccccc23)C1
TGI (A549 NSCLC): > 100 µM
TGI (ACHN renal): > 100 µM
TGI (COLO 205 colon): > 100 µM
TGI (DU-145 prostate): > 100 µM
TGI (HCT-116 colon): > 100 µM
TGI (HCT-15 colon): > 100 µM
TGI (HT29 colon): > 100 µM
TGI (M14 melanoma): > 100 µM
TGI (MOLT-4 leukemia): > 100 µM
TGI (NCI-H226 lung): > 100 µM
TGI (NCI-H23 lung): > 100 µM
TGI (NCI-H460 lung): > 100 µM
TGI (OVCAR-3 ovarian): > 100 µM
TGI (OVCAR-4 ovarian): > 100 µM
TGI (OVCAR-8 ovarian): > 100 µM
TGI (SF-295 CNS): > 100 µM
TGI (SK-MEL-5 melanoma): > 100 µM
TGI (UACC-62 melanoma): > 100 µM

COC(=O)[C@@H]1OC(C)(c2ccccc2)O[C@H]1C(=O)OC
TGI (A549 NSCLC): > 100 µM
TGI (ACHN renal): > 100 µM
TGI (COLO 205 colon): > 100 µM
TGI (DU-145 prostate): > 100 µM
TGI (HCT-15 colon): > 100 µM
TGI (HT29 colon): > 100 µM
TGI (M14 melanoma): > 100 µM
TGI (MDA-MB-435): > 100 µM
TGI (MOLT-4 leukemia): > 100 µM
TGI (NCI-H226 lung): > 100 µM
TGI (NCI-H23 lung): > 100 µM
TGI (NCI-H460 lung): > 100 µM
TGI (OVCAR-3 ovarian): > 100 µM
TGI (OVCAR-4 ovarian): > 100 µM
TGI (OVCAR-8 ovarian): > 100 µM
TGI (SF-295 CNS): > 100 µM
TGI (SK-MEL-5 melanoma): > 100 µM
TGI (UACC-62 melanoma): > 100 µM

COC(=O)C1(C(=O)OC)CC2=C(S(=O)(=O)c3ccccc3)C[C@H](C#N)[C@H]2C1
TGI (A549 NSCLC): > 100 µM
TGI (ACHN renal): > 100 µM
TGI (COLO 205 colon): > 100 µM
TGI (DU-145 prostate): > 100 µM
TGI (HCT-116 colon): > 100 µM
TGI (HCT-15 colon): > 100 µM
TGI (HT29 colon): > 100 µM
TGI (M14 melanoma): > 100 µM
TGI (MDA-MB-435): > 100 µM
TGI (MOLT-4 leukemia): > 100 µM
TGI (NCI-H226 lung): > 100 µM
TGI (NCI-H23 lung): > 100 µM
TGI (OVCAR-4 ovarian): > 100 µM
TGI (OVCAR-8 ovarian): > 100 µM
TGI (SF-295 CNS): > 100 µM
TGI (SK-MEL-5 melanoma): > 100 µM
TGI (UACC-62 melanoma): > 100 µM

O=C(/C=C/c1ccc2c(c1)OCO2)CC(=O)/C=C/c1ccc2c(c1)OCO2
TGI (A549 NSCLC): > 100 µM
TGI (ACHN renal): > 100 µM
TGI (COLO 205 colon): > 100 µM
TGI (HCT-116 colon): > 100 µM
TGI (HCT-15 colon): > 100 µM
TGI (HT29 colon): > 100 µM
TGI (M14 melanoma): > 100 µM
TGI (MDA-MB-435): > 100 µM
TGI (MOLT-4 leukemia): > 100 µM
TGI (NCI-H226 lung): > 100 µM
TGI (NCI-H23 lung): > 100 µM
TGI (NCI-H460 lung): > 100 µM
TGI (OVCAR-3 ovarian): > 100 µM
TGI (OVCAR-4 ovarian): 68.5 µM
TGI (SF-295 CNS): > 100 µM
TGI (SK-MEL-5 melanoma): > 100 µM
TGI (UACC-62 melanoma): > 100 µM

CCOC(=O)c1ccc(Nc2nc3cc(C(F)(F)F)ccc3nc2C(=O)OCC)cc1
TGI (A549 NSCLC): > 100 µM
TGI (ACHN renal): > 100 µM
TGI (COLO 205 colon): > 100 µM
TGI (DU-145 prostate): > 100 µM
TGI (HCT-116 colon): > 100 µM
TGI (HCT-15 colon): > 100 µM
TGI (HT29 colon): > 100 µM
TGI (M14 melanoma): > 100 µM
TGI (MDA-MB-435): > 100 µM
TGI (MOLT-4 leukemia): > 100 µM
TGI (NCI-H23 lung): > 100 µM
TGI (NCI-H460 lung): > 100 µM
TGI (OVCAR-3 ovarian): > 100 µM
TGI (OVCAR-8 ovarian): > 100 µM
TGI (SF-295 CNS): > 100 µM
TGI (SK-MEL-5 melanoma): 89.3 µM
TGI (UACC-62 melanoma): > 100 µM

Cn1nc2ccccc2cc1=O
TGI (A549 NSCLC): > 100 µM
TGI (ACHN renal): > 100 µM
TGI (COLO 205 colon): > 100 µM
TGI (HCT-116 colon): > 100 µM
TGI (HCT-15 colon): > 100 µM
TGI (HT29 colon): > 100 µM
TGI (M14 melanoma): > 100 µM
TGI (NCI-H226 lung): > 100 µM
TGI (NCI-H23 lung): > 100 µM
TGI (NCI-H460 lung): > 100 µM
TGI (OVCAR-3 ovarian): > 100 µM
TGI (OVCAR-4 ovarian): > 100 µM
TGI (OVCAR-8 ovarian): > 100 µM
TGI (SF-295 CNS): > 100 µM
TGI (SK-MEL-5 melanoma): > 100 µM
TGI (UACC-62 melanoma): > 100 µM
